Patent US11384063B2, “Modulators of estrogen receptor proteolysis and associated methods of use” (Arvinas Operations, Inc., priority 2017, dated 2022)
Like-named read-outs stand apart in the source and are kept apart here.

Tests used:
ERα [1] = biological target: T1, ERα (Homo sapiens, UniProt P03372); assay: Estrogen receptor-alpha (ERα) degradation assay in MCF7 cells using In-Cell Western assay; format: cell-based; parameters: assessed for their activity in degrading ERα in MCF-7 cells via western blot; endogenous in cells; host or cells: MCF7 cells; conditions: ER-alpha degradation in MCF7 cells, 5 days of incubation
T1 sequence (P03372 1-595): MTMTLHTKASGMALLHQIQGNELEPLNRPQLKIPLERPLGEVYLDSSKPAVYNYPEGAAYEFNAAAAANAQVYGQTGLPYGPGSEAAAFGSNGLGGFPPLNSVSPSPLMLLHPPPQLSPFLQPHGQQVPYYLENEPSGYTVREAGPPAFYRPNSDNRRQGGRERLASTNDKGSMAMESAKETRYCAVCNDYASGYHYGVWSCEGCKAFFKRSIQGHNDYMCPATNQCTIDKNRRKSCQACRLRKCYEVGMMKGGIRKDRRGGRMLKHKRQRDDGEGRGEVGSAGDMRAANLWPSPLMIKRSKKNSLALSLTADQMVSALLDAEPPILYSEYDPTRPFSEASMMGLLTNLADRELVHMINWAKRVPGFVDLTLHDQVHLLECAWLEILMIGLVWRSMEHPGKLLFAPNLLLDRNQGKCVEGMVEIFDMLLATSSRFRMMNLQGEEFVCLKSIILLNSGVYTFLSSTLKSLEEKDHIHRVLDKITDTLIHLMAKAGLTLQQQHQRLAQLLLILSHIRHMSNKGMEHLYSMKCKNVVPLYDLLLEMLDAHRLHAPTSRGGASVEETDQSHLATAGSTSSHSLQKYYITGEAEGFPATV
Protocol: Estrogen Receptor-Alpha (ERα) Degradation Assay Using in-Cell Western™ Assay for Table 5.
Degradation of ERα by claimed compounds were determined in MCF7 cells using an In-Cell Western™ assay. Briefly, MCF7 cells were plated in 96-well plates (2000 cells per well in 100 μl media) and incubated at 37° C. under an atmosphere of 5% CO2 in a humidified incubator overnight. One-hundred (100) μI of media containing test compound (at 2x concentration) was added to the appropriate wells to provide 11 serially decreasing concentrations (top final concentration, 1 μM then 3-fold less for the next 10 concentrations); a vehicle control (DMSO) was also added for each compound. For each experiment, all compounds were assayed on duplicate plates. Cells were then incubated for 3 or 5 days in the above-mentioned environment. The assay was terminated by removal of media, a single wash with ice-cold PBS and the addition of 50 μl paraformaldehyde (PFA: 4% in PBS). After 15 minutes in PFA at room temperature, the cells were permeabilized in Tris-phosphate-buffered saline with Tween (0.1%) (TBST) supplemented with Triton X-100 (0.5%) for 15 minutes. Cells were then blocked in BSA (TBST with BSA, 3%) for one hour. Primary antibodies for the detection of ERa (rabbit monoclonal, 1:1000, Cell Signaling Technology Catalog #8644) and tubulin (mouse monoclonal, 1:5000, Sigma Catalog #T6074) in TBST with BSA (3%) were added. The cells were incubated overnight at 4° C. The cells were then washed thrice with TBST at room temperature and then incubated with anti-rabbit and anti-mouse fluorescently-labelled secondary antibodies (IRDye®; LI-COR; Lincoln, Nebr.) in LI-COR blocking buffer (Catalog #927-50000) for one hour at room temperature. Following 3 washes with TBST, the buffer was removed and the plates were read on an Odyssey® infrared imaging system (LI-COR®, Lincoln, Nebr.) at 700 nm and 800 nm. Using commercial software (ImageStudio™; LI-COR, Lincoln, Nebr.), the staining intensity for ERa and tubulin in each well was quantified and exported for analysis. For each data point, ERa intensity was normalized to tubulin intensity and for each compound all normalized intensity values were normalized to the vehicle control. DC50 and Dmax values were determined following a 4-parameter IC50 curve fit using ACAS dose response module (McNeil & Co Inc.).

ERα [2] = biological target: T1, ERα; assay: ERE luciferase reporter gene assay in T47D-KBluc cells (target engagement); format: cell-based; parameters: T47D human breast cancer cells stably transfected with estrogen responsive element/promoter/luciferase reporter gene; host or cells: T47D-KBluc cells; conditions: 10% FBS, 24 hours, read-out: ER-α Luciferase IC50
Summary of the method: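 PROTACs were tested at 12 concentrations from 300 nM down to 2 pM in 3-fold steps for 24 h on T47D-KBluc cells with a stable ERE-driven luciferase. Medium was RPMI with 10% FBS, measured at 10 pM estrogen. IC50 came from luminescence after lysis, in duplicate.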

[3] = Table 3 cereblon centric PROTACs

Structure (SMILES)	DC50 (ERα [1]) [nM]	Dmax (ERα [1]) [%]	IC50 (ERα [2]; [3]) [nM]	IC50 (ERα [2]; Table 1 cereblon centric PROTACs) [nM]
O=C1CCC(N2C(=O)c3ccc(N4CCN([C@H]5C[C@H](Oc6ccc(Oc7c(-c8ccc(Br)cc8)sc8cc(O)ccc78)cc6)C5)CC4)cc3C2=O)C(=O)N1 (stereo partly drawn) [Compound 223, trans-5-[4-[3-[4-[2-(4-bromophenyl)-6-hydroxy-benzothiophen-3-yl]oxyphenoxy]cyclobutyl]piperazin-1-yl]-2-(2,6-dioxo-3-piperidyl)isoindoline-1,3-dione]	10 to 100	> 75	41.1	
COc1ccc(-c2sc3cc(O)ccc3c2Oc2ccc(N3CCC(CN4CCN(c5ccc6c(c5)C(=O)N(C5CCC(=O)NC5=O)C6=O)CC4)CC3)cc2)cc1 (stereo not drawn) [Compound 237, 2-(2,6-dioxo-3-piperidyl)-5-[4-[[1-[4-[6-hydroxy-2-(4-methoxyphenyl)benzothiophen-3-yl]oxyphenyl]-4-piperidyl]methyl]piperazin-1-yl]isoindoline-1,3-dione]	10 to 100	> 75	4.9	
O=C1CCC(N2C(=O)c3ccc(N4CCC(CN5CC(c6ccc(Oc7c(-c8ccc(Br)cc8)sc8cc(O)ccc78)cc6)C5)CC4)cc3C2=O)C(=O)N1 (stereo not drawn) [Compound 214]	1 to 10	50 to 75	10.4	
O=C1CCC(N2Cc3cc(CCCCN4CCCN(CCOc5ccc(Oc6c(-c7ccc(Br)cc7)sc7cc(O)ccc67)cc5)CC4)ccc3C2=O)C(=O)N1 (stereo not drawn) [Compound 199, 3-[5-[4-[4-[2-[4-[2-(4-bromophenyl)-6-hydroxybenzothiophen-3-yl]oxyphenoxy]ethyl]-1,4-diazepan-1-yl]butyl]-1-oxo-isoindolin-2-yl]piperidine-2,6-dione]	1 to 10	50 to 75	0.82	
O=C1CCC(N2Cc3cc(N4CCN(CCCOc5ccc(Oc6c(-c7ccc(F)c(F)c7)sc7cc(O)ccc67)cc5)CC4)ccc3C2=O)C(=O)N1 (stereo not drawn) [Compound 221, 3-[5-[4-[3-[4-[2-(3,4-difluorophenyl)-6-hydroxy-benzothiophen-3-yl]oxyphenoxy]propyl]piperazin-1-yl]-1-oxo-isoindolin-2-yl]piperidine-2,6-dione]	1 to 10	50 to 75	2.4	
O=C1CCC(N2Cc3cc(NCCCN4CCCN(CCOc5ccc(Oc6c(-c7ccc(Br)cc7)sc7cc(O)ccc67)cc5)CC4)ccc3C2=O)C(=O)N1 (stereo not drawn) [Compound 74, 3-(5-(3-(4-(2-(4-(2-(4-bromophenyl)-6-hydroxybenzo[b]thiophen-3-yloxy)phenoxy)ethyl)-1,4-diazepan-1-yl)propylamino)-1-oxoisoindolin-2-yl)piperidine-2,6-dione]	1 to 10	> 75		11
O=C1CCC(N2Cc3c(ccc(N4CCN(CC5CCN(CCOc6ccc(Oc7c(-c8ccc(C(F)(F)F)cc8)sc8cc(O)ccc78)cc6)CC5)CC4)c3F)C2=O)C(=O)N1 (stereo not drawn) [Compound 201, 3-[4-fluoro-5-[4-[[1-[2-[4-[6-hydroxy-2-[4-(trifluoromethyl)phenyl]benzothiophen-3-yl]oxyphenoxy]ethyl]-4-piperidyl]methyl]piperazin-1-yl]-1-oxo-isoindolin-2-yl]piperidine-2,6-dione]	10 to 100	> 75	8.4	
O=C1CCC(N2C(=O)c3ccc(N4CC(CN5CCCN(CCOc6ccc(Oc7c(-c8ccc(Br)cc8)sc8cc(O)ccc78)cc6)CC5)C4)cc3C2=O)C(=O)N1 (stereo not drawn) [Compound 191, 5-(3-((4-(2-(4-((2-(4-bromophenyl)-6-hydroxybenzo[b]thiophen-3-yl)oxy)phenoxy)ethyl)-1,4-diazepan-1-yl)methyl)azetidin-1-yl)-2-(2,6-dioxopiperidin-3-yl)isoindoline-1,3-dione]	1 to 10	50 to 75	1.8	

Next, values leading:

DC50 (ERα [1]) [nM]	Dmax (ERα [1]) [%]	IC50 (ERα [2]; [3]) [nM]	IC50 (ERα [2]; Table 1 cereblon centric PROTACs) [nM]	Structure (SMILES)
1 to 10	> 75	2.4		O=C1CCC(N2C(=O)c3ccc(NCCCN4CCCN(CCOc5ccc(Oc6c(-c7ccc(Br)cc7)sc7cc(O)ccc67)cc5)CC4)cc3C2=O)C(=O)N1 (stereo not drawn) [Compound 178, 5-[3-[4-[2-[4-[2-(4-bromophenyl)-6-hydroxy-benzothiophen-3-yl]oxyphenoxy]ethyl]-1,4-diazepan-1-yl]propylamino]-2-(2,6-dioxo-3-piperidyl)isoindoline-1,3-dione]
1 to 10	> 75	9.8		O=C1CCC(N2Cc3c(ccc(N4CCN(C5CCN(CCOc6ccc(Oc7c(-c8ccc(C(F)(F)F)cc8)sc8cc(O)ccc78)cc6)CC5)CC4)c3F)C2=O)C(=O)N1 (stereo not drawn) [Compound 193, 3-[4-fluoro-5-[4-[1-[2-[4-[6-hydroxy-2-[4-(trifluoromethyl)phenyl]benzothiophen-3-yl]oxyphenoxy]ethyl]-4-piperidyl]piperazin-1-yl]-1-oxo-isoindolin-2-yl]piperidine-2,6-dione]
1 to 10	50 to 75	5.3		O=C1CCC(N2Cc3cc(N4CCN(CCCCc5ccc(Oc6c(-c7ccc(Br)cc7)sc7cc(O)ccc67)cc5)CC4)ccc3C2=O)C(=O)N1 (stereo not drawn) [Compound 215, 3-[5-[4-[4-[4-[2-(4-bromophenyl)-6-hydroxybenzothiophen-3-yl]oxyphenyl]butyl]piperazin-1-yl]-1-oxo-isoindolin-2-yl]piperidine-2,6-dione]
1 to 10	> 75	1		O=C1CCC(N2Cc3cc(N4CCN(CCC5CCN(c6ccc(Oc7c(-c8ccc(F)cc8)sc8cc(O)ccc78)cc6)CC5)CC4)ccc3C2=O)C(=O)N1 (stereo not drawn) [Compound 229, 3-[5-[4-[2-[1-[4-[2-(4-fluorophenyl)-6-hydroxy-benzothiophen-3-yl]oxyphenyl]-4-piperidyl]ethyl]piperazin-1-yl]-1-oxo-isoindolin-2-yl]piperidine-2,6-dione]
1 to 10	50 to 75	7.1		O=C1CCC(N2Cc3cc(N4CCN(CC5CCN(c6ccc(Oc7c(-c8ccc(Br)cc8)sc8cc(O)ccc78)cc6)CC5)CC4)ccc3C2=O)C(=O)N1 (stereo not drawn) [Compound 231, 3-[5-[4-[[1-[4-[2-(4-bromophenyl)-6-hydroxy-benzothiophen-3-yl]oxyphenyl]-4-piperidyl]methyl]piperazin-1-yl]-1-oxo-isoindolin-2-yl]piperidine-2,6-dione]
1 to 10	> 75	7		O=C1CCC(N2C(=O)c3ccc(N4CCN(CC5CCN(c6ccc(Oc7c(-c8ccc(F)cc8)sc8cc(O)ccc78)cc6)CC5)CC4)cc3C2=O)C(=O)N1 (stereo not drawn) [Compound 227, 2-(2,6-dioxo-3-piperidyl)-5-[4-[[1-[4-[2-(4-fluorophenyl)-6-hydroxy-benzothiophen-3-yl]oxyphenyl]-4-piperidyl]methyl]piperazin-1-yl]isoindoline-1,3-dione]
1 to 10	50 to 75	2.7		O=C1CCC(N2Cc3cc(N4CCC(CN5CC(c6ccc(Oc7c(-c8ccc(Br)cc8)sc8cc(O)ccc78)cc6)C5)CC4)ccc3C2=O)C(=O)N1 (stereo not drawn) [Compound 216, 3-[5-[4-[[3-[4-[2-[4-bromophenyl)-6-hydroxy-benzothiophen-3-yl]oxyphenyl]azetidin-1-yl]methyl]-1-piperidyl]-1-oxo-isoindolin-2-yl]piperidine-2,6-dione]
